Test results reported in a melting point compilation (Tetko et al.; mined from patent text by program, amines drawn as free bases though some values may be those of a salt).
Counter-ions that a name gives are not always drawn. Residues, ends and D or L forms follow the SMILES beside them. *: point of attachment. Tfa = O=C(C(F)(F)F)*

Row | melting point [°C] | Structure (SMILES)
1 | 172 to 175 | COc1ccc(C(=O)O)cc1NC(=O)C(CSC(C)=O)Cc1ccccc1 (centres undefined)
2 | 188 to 189 | N#Cc1ccc(OCCCOc2ccc(-c3cc4cc(C#N)ccc4o3)cc2)cc1
3 | 125 to 127 | NC(=O)C1=C(c2ccccc2)C(c2ccccc2)OC1=O (centres undefined)
4 | 160 to 163 | CC(C)Cn1cc(-c2ccc3nnn(Cc4ccc5ncccc5c4)c3n2)cn1
5 | 248 to 249 | NCCc1c(C(=O)O)[nH]c2ccc(Br)cc12
6 | 254 | O=C(OCc1ccccc1)c1n[nH]c2c(=O)[nH]c3cc(Cl)ccc3c(=O)c12
7 | 157 to 159 | Cc1ccc(C2c3c(C)c(N4C(=O)c5cc(Cl)c(Cl)cc5C4=O)c(C)c(C)c3OC2(C)C)cc1 (centres undefined)
8 | 263 | O=C(C=Cc1ccccc1)Nc1ccc2ccc(Cl)nc2n1
9 | 125 to 128 | COc1cc(Cl)c2c(c1)CCN2c1cc(NC(C)C2CCC2)nc(C)n1 (centres undefined)
10 | 203 to 205 | CN1CN(C(=O)c2c(F)cccc2F)C(=O)N(c2ccc(S(=O)(=O)C(F)F)cc2F)C1
11 | 55 to 57 | Cc1nsnc1-c1cccnc1
12 | 335 to 337 | O=c1[nH]c2cc(Cl)ccc2c(O)c1-c1ccc(F)cc1
13 | 73 to 74.5 | CCOC(=O)c1cc(OC)c(OCC)c(OCC)c1-c1c(C(=O)OCC)cc(OC)c2c1OCO2
14 | 123 to 125 | CSc1sc(-c2cccnc2)c2c1-c1oncc1C(C)(C)C2
15 | 272 | CCOC(=O)c1cn(C)c2cnc3cc(F)c(F)cc3c2c1=O
16 | 91 to 92 | CCc1cc(NC(C)=O)c(C=O)c(CC)n1
17 | 192 to 193 | CC(=O)c1c(C#N)nn(-c2c(Cl)cc(OC(F)(F)F)cc2Cl)c1N
18 | 237 | CCCOc1ccc(S(=O)(=O)N2CCNCC2)cc1-c1cc2c(=O)n(C)c(=O)n(CCC)c2[nH]1
19 | 221 | Cc1cc(-c2cnn3c(C(F)F)cc(-c4ccc(C(F)(F)F)c(C)c4)nc23)ccn1
20 | 147 to 149 | C=CCn1c(-c2c(Cl)cccc2Cl)nc(-c2ccncc2)c1-c1ccc(C)cc1
21 | 254 to 256 | Cc1c(F)cccc1C(=O)Nc1ccc(C(=O)N2Cc3ccccc3Cc3ccccc32)cc1Cl
22 | 137 to 138 | C=C(CC(=O)c1ccc(C)cc1)C(=O)O
23 | > 250 | Cc1ccnc2[nH]c(=O)c(CC(=O)O)cc12
24 | 140 to 142 | COc1c(N)ccc2c1C(=CC#N)CC2
25 | 226 to 228 | Nc1ncccc1-c1nc2cccnc2n1-c1ccc(CNC(=O)c2ccccc2)cc1
26 | 159 to 162 | O=c1ncc(Cl)cn1CC(O)CCl (centres undefined)

Row | melting point [°C] | Structure (SMILES)
27 | 176 to 190 | Nc1nc2c(s1)CC(CCN1CCN(c3ccccn3)CC1)CC2 (centres undefined)
28 | 270 | O=c1c2ccc(-c3nnn[nH]3)cc2oc2ccc(OCCO)cc12
29 | 183 | CC(C)(C)c1ccc(C(=O)N[C@H]2CC[C@H](CCN3CCN(c4nccc5c4OCC5)CC3)CC2)cc1
30 | 279 | Nc1ncc(-c2noc(-c3cnn4c(C(F)(F)F)cc(-c5ccc(C(F)(F)F)c(Cl)c5)nc34)n2)cn1
31 | 212 to 214 | Cc1cc(C2C=CCC2)c(S(C)(=O)=O)cc1C(=O)N=C(N)N (centres undefined)
32 | 65 to 66 | CCOC(=O)c1cc2c(nc1C(=O)OCC)CCSC2
33 | 178 to 180 | O=S(=O)(/C=C/c1ccc(Cl)cc1)CS(=O)(=O)/C=C/c1ccc(Cl)cc1
34 | 217 to 220 | O=C(N1CCCC1)N1Cc2c(C3=NCCO3)ncn2-c2ccccc21
35 | 90 | CCCCOC(=O)c1ccc(C(F)(F)F)cc1Cl
36 | 128 to 131 | O=S(=O)(N1CCCC1)N1CCN(c2ccnc(CO)n2)CC1
37 | 125 to 127 | CCCc1c(OCC(O)COc2ccc3c(=O)cc(C=CC(=O)OCC)oc3c2CCC)ccc(C(C)=O)c1O (centres undefined)
38 | 116 | Clc1cccc(NNc2cccc(Cl)c2)c1
39 | 159 to 161 | O=C(O)c1cc2cc(C3CCCCC3)ccc2nn1
40 | 241 | N#Cc1ccc(-c2nc(=O)c3ccccc3s2)cc1
41 | 138 to 140 | CSc1ccc(C2=C(Br)C(=O)OC2)cc1
42 | 190 to 191 | O=C(O)c1cn(-c2cccc(OC(F)F)c2)cn1
43 | 204 to 205 | Cn1c(COc2ccc(CC3SC(=O)NC3=O)cc2)nc2cc(Br)cnc21 (centres undefined)
44 | 125 to 127 | O=C(CC1CC2CCC1C2)Nc1ccccc1C(c1ccc(O)cc1)c1ccc(O)cc1 (centres undefined)
45 | 64 to 65 | C=CCOc1cccc2oc(C(=O)OCC)c(C)c12
46 | 223 to 224 | CS(=O)(=O)N1CCC(=C2c3ccccc3CCc3cccnc32)CC1
47 | 80 to 84 | c1ccc(C(c2ccccc2)N2CCN(CCCCn3cccc3)CC2)cc1
48 | 112 to 113 | CCCCCCCSc1nnc(N)s1
49 | 174 to 178 | CC(=O)NNc1ccnc2c(NC(=O)c3c(Cl)cccc3Cl)cc(C(F)(F)F)cc12
50 | 107 to 109 | CCCc1c(OCc2c(CCCCc3cccnc3)ccc(C(N)=O)c2OCC)ccc(C(C)=O)c1O
51 | 231 to 233 | O=P(O)(CCCNCc1cc(Cl)cc(Cl)c1)CC1CCCCC1
52 | 193 to 196 | CCCn1c(COC)nc2c(N)nc3ccc(OCCCN4CCOCC4)cc3c21

Row | melting point [°C] | Structure (SMILES)
53 | 142 to 143 | COc1ccc2c(c1C)OC(C(=O)O)C2 (centres undefined)
54 | 148 to 152 | CS(=O)(=O)c1ccc(C(CC2CCCC2)C(=O)Nc2nc3ccccc3[nH]2)cc1C#N (centres undefined)
55 | 102 to 103 | COc1ccc2c3c(c(=O)oc2c1)CN(CCN1CC2CCCC(C2)C1)CC3
56 | 265 to 267 | CNc1ncc2c(=O)[nH]c(-c3ccccc3OC)nc2n1
57 | 163 to 164 | O=C(O)CCC(=NO)c1ccc(-c2ccc(Br)cc2F)cc1
58 | 148 to 150 | Cc1c(NCCCCNCC(O)COc2ccccc2)n(C)c(=O)n(C)c1=O (centres undefined)
59 | 218 to 219 | CC(C)(CC(O)(Cn1cc(Cl)c(=O)c2sccc21)C(F)(F)F)c1cc(-c2cncnc2)cc2c1OCC2 (centres undefined)
60 | 172 to 173 | O=C(O)c1cccc(Oc2ccc([N+](=O)[O-])cc2Cl)c1
61 | 185 | O=C(O)CNC(=O)CNC(=O)C(F)(F)F (Tfa-Gly-Gly-OH)
62 | 196 to 198 | N#Cc1cn(-c2ccc(F)cc2F)c(=O)n(SC(Cl)(Cl)Cl)c1=O
63 | 77 to 80 | CCOC(=O)[C@@H](NS(=O)(=O)c1ccc(N2CCC(=O)CC2)cc1)C(C)C
64 | 142 to 150 | COC(=O)CCC(=O)c1ccc2c(c1)C(C)NC(=O)N2 (centres undefined)
65 | 131 to 133 | COC(=O)C1=C(C)NC(C)=C(C(=O)OC)C1c1cc([N+](=O)[O-])ccc1OCCCCNCC(O)COc1ccccc1 (centres undefined)
66 | 68 to 71 | COc1ccc(-c2cc3ccccc3n2C(C)=O)cc1
67 | 103 | CCOC(=O)C1=C(N2CCCCC2)N=C(C)C(C(=O)OCC)C1c1ccccc1C#N (centres undefined)
68 | 197 to 198 | O=C(O)c1ccccc1NC1CCOC1=O (centres undefined)
69 | 98 to 99 | Cc1ccnc2c(Oc3ccccc3[N+](=O)[O-])cccc12
70 | 128 | O=C(CCl)NC(c1ccc(F)cc1)c1ccc(F)cc1
71 | 152 to 156 | CC(C)Cn1nc(-c2ccc(F)cc2F)cc(CN2C(=O)c3ccccc3C2=O)c1=O
72 | 152 to 154 | Nc1c(-c2ccc(Cl)cc2)sc2ccccc12
73 | 300 | Cc1nc(O)c(C)c(O)n1
74 | 227 | Cc1ccc(C(=O)NCc2ccncc2)cc1
75 | 83.9 to 85.6 | COCCCCCCCCCCCC(N)=O
76 | 182 to 185 | O=[N+]([O-])c1ccc(CN2CCCC(O)c3ncccc32)cc1 (centres undefined)
77 | > 300 | Oc1nc2cc(Cl)c3nccnc3c2nc1O
78 | 56 to 58 | Nc1ccnc(C(F)(F)F)c1

Row | melting point [°C] | Structure (SMILES)
79 | 221 to 222 | COc1ccc2[nH]cc(CC(=O)N3CCN(c4ccc(NC(=N)c5cccs5)cc4)CC3)c2c1
80 | 230 to 232 | COc1ccc(-n2cnc(-c3cccc(C(=O)O)c3)n2)cc1
81 | 70 to 72 | CCCCN(CC(=O)N1c2ccccc2N(CC)C(=O)c2cnc(-c3ccccc3)nc21)C(C)(C)C
82 | 219 | CC(C)(C)[N+]([O-])=Cc1ccc(S(N)(=O)=O)cc1
83 | 106 to 107 | COP(=O)(OC)c1cc(Oc2c(Cl)cc(C(F)(F)F)cc2Cl)ccc1[N+](=O)[O-]
84 | 49.5 to 50 | CC(NCc1ccccc1)N(Cc1ccccc1)CC(C)[N+](=O)[O-] (centres undefined)
85 | 75 to 76 | N#CCCn1ncccc1=O
86 | 100 to 102 | COC(=O)/C=C/C=C(c1ccccc1OC)c1ccccc1OC
87 | 117 to 118 | COC/C=C(C)/C=C/C(F)=C(C)/C=C/c1c(C)sc(C)c1C
88 | 193 to 194 | Cc1c(N)nc(Cl)nc1Cl
89 | 188 to 190 | CCOC(=O)c1ccc2[nH]c3c(c2c1)CC(N(C)C)CC3 (centres undefined)
90 | 113 to 115 | Fc1cccc(C2OC3(CCN(Cc4ccccc4)CC3)N3CCCCC23)c1 (centres undefined)
91 | 206 to 208 | Cc1nc(-c2cccc(C(F)(F)F)c2)c2nc(-c3ccccc3)cc-2[nH]1
92 | 229 to 231 | CSc1ncc2cc(-c3c(Cl)cccc3Cl)c(=NC(C)=O)n(C)c2n1
93 | 145 to 146 | Cc1cccc(NC(=O)c2ccccc2C)c1
94 | 62 to 63 | OCc1cccc(C(O)(C(F)(F)F)C(F)(F)F)n1
95 | 208 to 210 | Cc1cc(C)c2c(c1)C(=O)CC21CNC(=O)C1 (centres undefined)
96 | 103 to 104 | CO/C=C(/C(=O)OC)c1ccccc1Oc1nc(Cl)nc(Oc2ccccc2)n1
97 | 130 to 131 | O=C1C(CN2CCN(CCO)CC2)CCN1c1ccc(Cl)cc1 (centres undefined)
98 | 171 to 175 | c1ccc2c3c4c(nc2c1)CCCC4SCCN3 (centres undefined)
99 | 210 to 212 | CC(=O)OCc1nc2nccnc2c(=O)[nH]1
100 | 131 | N#CC(c1ccccc1)c1ccc(Cl)nn1 (centres undefined)
101 | 243 | O=C(NC1CCC(Oc2ccc(F)cc2)CC1)NC12CC3CC(CC(C3)C1)C2 (centres undefined)
102 | 159 to 160 | COC(Cc1ccc2oc(Cc3nc(-c4ccccc4)oc3C)cc2c1)C(=O)O (centres undefined)
103 | 110 to 112 | CCCCOc1ccc(NC(=O)c2ccccc2C(c2ccc(O)cc2)c2ccc(O)cc2)cc1

Row | Structure (SMILES) | melting point [°C]
104 | O=P(O)(O)C(c1ccc2cc(O)ccc2c1)P(O)(O)=S (centres undefined) | 210 to 211
